The record followed here is patent US12187728B2 (Raze Therapeutics, Inc., priority 2015, dated 2025).

The target in the assay is T1, Human MTHFD2 (Homo sapiens, UniProt P13995).
T1 construct: residues 36-350 in Uniport ID P13995; His6 (N); made in house; host or cells: E. coli
T1 sequence (P13995 36-350): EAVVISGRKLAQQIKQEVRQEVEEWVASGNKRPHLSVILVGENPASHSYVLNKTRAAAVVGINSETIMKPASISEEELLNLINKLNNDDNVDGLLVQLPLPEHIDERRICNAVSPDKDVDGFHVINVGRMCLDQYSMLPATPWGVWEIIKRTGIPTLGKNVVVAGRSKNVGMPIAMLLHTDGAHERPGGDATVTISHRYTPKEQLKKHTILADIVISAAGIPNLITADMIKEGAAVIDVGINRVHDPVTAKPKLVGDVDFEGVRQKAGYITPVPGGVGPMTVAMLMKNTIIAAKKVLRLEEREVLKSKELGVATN
In words: MTHFD2 Activity Assay (dehydrogenase activity, diaphorase/resazurin coupled fluorescence). Type of assay: biochemical. As to conditions: inhibitory activity (IC50 and/or binding constant); 0.2 nM MTHFD2, 11 concentrations. Summed up: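 Steps: compound + 0.2 nM enzyme, 15 min, pH 8.0 Hepes buffer; add 70 μM CH2-THF, 1 mM NAD+, 100 μM resazurin, diaphorase; 30 min; quench with EDTA; read fluorescence. Data normalized to DMSO (100%) and no-enzyme (0%) wells.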
For orientation: Alamar Blue is a resazurin reagent that responds to reducing activity.
Consider `Cn1c(N[C@H]2CCC[C@H](C(=O)O)C2)nc2c1c(=O)n(Cc1ccc(Cl)c(Cl)c1)c(=O)n2C` (single isomer, unassigned) [Example 209, (1S,3S)-3-(1-(3,4-dichlorobenzyl)-3,7-dimethyl-2,6-dioxo-2,3,6,7-tetrahydro-1H-purin-8-ylamino)cyclohexanecarboxylic or (1R,3R)-3-(1-(3,4-dichlorobenzyl)-3,7-dimethyl-2,6-dioxo-2,3,6,7-tetrahydro-1H-purin-8-ylamino)cyclohexanecarboxylic acid], for which the IC50 (in general, the point on the concentration scale where inhibition reaches its midpoint) lay in the range of 10 to 1000 nM.

For the compound `COC(=O)c1cc(Cn2c(=O)c3c(nc(NCCCO)n3C)n(C)c2=O)ccc1Cl` [Example 165, Methyl 2-chloro-5-({8-[(3-hydroxypropyl)amino]-3,7-dimethyl-2,6-dioxo-2,3,6,7-tetrahydro-1H-purin-1-yl}methyl)benzoate], the IC50 lay in the range of 1000 to 5000 nM.

The compound `Cn1c(CCO)nc2c1c(=O)n(Cc1cc3cc(Cl)ccc3[nH]1)c(=O)n2C` [Example 223, 1-((5-chloro-1H-indol-2-yl)methyl)-8-(2-hydroxyethyl)-3,7-dimethyl-1H-purine-2,6(3H,7H)-dione] came in with an IC50 of 1000 to 5000 nM.

For the compound `COc1nc2c(c(=O)n(Cc3cc4cccc(Cl)c4n3C)c(=O)n2C)n1C` [Example 433, 1-[(7-chloro-1-methyl-indol-2-yl)methyl]-8-methoxy-3,7-dimethyl-purine-2,6-dione], the IC50 is 10 to 1000 nM.

`Cn1c(NC2CCNCC2)nc2c1c(=O)n(Cc1ccc(Cl)c(Cl)c1)c(=O)n2C` [Example 35, 1-[(3,4-dichlorophenyl)methyl]-3,7-dimethyl-8-[(piperidin-4-yl)amino]-2,3,6,7-tetrahydro-1H-purine-2,6-dione]: the 50% inhibitory concentration (IC50) was 1000 to 5000 nM.

In the case of `Cn1c(Nc2ccc(F)nc2)nc2c1c(=O)n(Cc1cc3c(Cl)cccc3[nH]1)c(=O)n2C` [Example 384, 1-((4-chloro-1H-indol-2-yl)methyl)-8-(6-fluoropyridin-3-ylamino)-3,7-dimethyl-1H-purine-2,6(3H,7H)-dione], the IC50 was in the range of 10 to 1000 nM.

Take `Cn1c(N[C@H]2CC[C@@H](C(=O)O)CC2)nc2c1c(=O)n(Cc1ccc(Cl)c(Cl)c1)c(=O)n2C` [Example 264, (±)-(cis)-4-((1-(3,4-dichlorobenzyl)-3,7-dimethyl-2,6-dioxo-2,3,6,7-tetrahydro-1H-purin-8-yl)amino)cyclohexanecarboxylic acid]: the concentration for half-maximal inhibition (IC50) was in the range of 10 to 1000 nM.

Consider `Cn1c(N[C@@H]2CCC[C@H]2O)nc2c1c(=O)n(Cc1ccc(Cl)c(Cl)c1)c(=O)n2C` [Example 93, 1-[(3,4-dichlorophenyl)methyl]-8-{[(1R,2R)-2-hydroxycyclopentyl]amino}-3,7-dimethyl-2,3,6,7-tetrahydro-1H-purine-2,6-dione], for which the half-maximal inhibitory concentration (IC50) was in the range of 10 to 1000 nM.

In turn, `Cn1c(N[C@H]2CC[C@@H](O)C2)nc2c1c(=O)n(Cc1ccc3cc[nH]c3c1)c(=O)n2C` (racemic) [Example 163, (±)-1-((1H-indol-6-yl)methyl)-8-((cis)-3-hydroxycyclopentylamino)-3,7-dimethyl-1H-purine-2,6(3H,7H)-dione] had a 50% inhibitory concentration (IC50) of 1000 to 5000 nM.

For the compound `Cn1c(NCCCCO)nc2c1c(=O)n(Cc1ccc(Cl)c(Cl)c1)c(=O)n2C` [Example 28, 1-[(3,4-dichlorophenyl)methyl]-8-[(4-hydroxybutyl)amino]-3,7-dimethyl-2,3,6,7-tetrahydro-1H-purine-2,6-dione], the concentration for half-maximal inhibition (IC50) is 10 to 1000 nM.

As to `Cn1c(N[C@H]2CCC[C@H]2O)nc2c1c(=O)n(Cc1ccc(Cl)c(Cl)c1)c(=O)n2C` [Example 94, 1-[(3,4-dichlorophenyl)methyl]-8-{[(1S,2R)-2-hydroxycyclopentyl]amino}-3,7-dimethyl-2,3,6,7-tetrahydro-1H-purine-2,6-dione], the IC50 is 10 to 1000 nM.

Take `Cn1c(C(C(N)=O)c2ccncc2)nc2c1c(=O)n(Cc1cc3c(Cl)cccc3[nH]1)c(=O)n2C` (centres unmarked) [Example 480, 2-(1-((4-chloro-1H-indol-2-yl)methyl)-3,7-dimethyl-2,6-dioxo-2,3,6,7-tetrahydro-1H-purin-8-yl)-2-(pyridin-4-yl)acetamide]: the half-inhibitory concentration (IC50) lay within 10 to 1000 nM.

In turn, `Cn1c(Nc2ccncc2)nc2c1c(=O)n(Cc1cc3c(Cl)cccc3[nH]1)c(=O)n2C` [Example 285, 1-((4-chloro-1H-indol-2-yl)methyl)-3,7-dimethyl-8-(pyridin-4-ylamino)-1H-purine-2,6(3H,7H)-dione] came in with an IC50 of 10 to 1000 nM.

The compound `Cn1c(N[C@H]2CCC(=O)NC2)nc2c1c(=O)n(Cc1cc3ccccc3[nH]1)c(=O)n2C` (single isomer, unassigned) [Example 228, (S)-1-((1H-indol-2-yl)methyl)-3,7-dimethyl-8-(6-oxopiperidin-3-ylamino)-1H-purine-2,6(3H,7H)-dione or (R)-1-((1H-indol-2-yl)methyl)-3,7-dimethyl-8-(6-oxopiperidin-3-ylamino)-1H-purine-2,6(3H,7H)-dione] displayed a half-inhibitory concentration (IC50) of 1000 to 5000 nM.

Consider `Cn1c(Nc2ccnc(C3CC(O)C3)c2)nc2c1c(=O)n(Cc1ccc(Cl)c(Cl)c1)c(=O)n2C` (centres unmarked) [Example 344, 1-(3,4-diclorobenzyl)-8-(2-(3-hydroxylcyclobutyl)pyridine-4-ylamino)-3,7-dimethyl-1-H-purine-2,6(3H,7H)-dione], for which the half-maximal inhibitory concentration (IC50) lay within 1000 to 5000 nM.

In the case of `Cc1ccc2[nH]c(Cn3c(=O)c4c(nc(N5CCC(O)CC5)n4C)n(C)c3=O)cc2c1` [Example 193, 8-(4-hydroxypiperidin-1-yl)-3,7-dimethyl-1-((5-methyl-1H-indol-2-yl)methyl)-1H-purine-2,6(3H,7H)-dione], the 50% inhibitory concentration (IC50) is 10 to 1000 nM.

The compound `Cn1c(Nc2cc[nH]c(=O)n2)nc2c1c(=O)n(Cc1cc3cc(Cl)ccc3[nH]1)c(=O)n2C` [Example 206, 1-((5-chloro-1H-indol-2-yl)methyl)-3,7-dimethyl-8-(2-oxo-1,2-dihydropyrimidin-4-ylamino)-1H-purine-2,6(3H,7H)-dione] came in with a half-maximal inhibitory concentration (IC50) of 10 to 1000 nM.

For `Cn1c(NCc2ccccc2)nc2c1c(=O)n(Cc1ccc(Cl)c(Cl)c1)c(=O)n2C` [Example 137, 8-(benzylamino)-1-(3,4-dichlorobenzyl)-3,7-dimethyl-1H-purine-2,6(3H,7H)-dione], the IC50 is 5000 to 10000 nM.

With `C[C@@H](O)CNc1nc2c(c(=O)n(Cc3ccc(Cl)c(F)c3)c(=O)n2C)n1C` [Example 24, 1-[(4-chloro-3-fluorophenyl)methyl]-8-{[(2R)-2-hydroxypropyl]amino}-3,7-dimethyl-2,3,6,7-tetrahydro-1H-purine-2,6-dione], the half-maximal inhibitory concentration (IC50) was 5000 to 10000 nM.

With `Cn1c(Nc2ccnc(C(=O)O)c2)nc2c1c(=O)n(Cc1ccc(Cl)c(Cl)c1)c(=O)n2C` [Example 303, 4-(1-(3,4-dichlorobenzyl)-3,7-dimethyl-2,6-dioxo-2,3,6,7-tetrahydro-1H-purin-8-ylamino)picolinic acid], the half-maximal inhibitory concentration (IC50) was 1000 to 5000 nM.

Consider `C[C@H](O)CNc1nc2c(c(=O)n(Cc3ccc(Cl)c(Cl)c3)c(=O)n2C)n1C` [Example 8, 1-[(3,4-dichlorophenyl)methyl]-8-{[(2S)-2-hydroxypropyl]amino}-3,7-dimethyl-2,3,6,7-tetrahydro-1H-purine-2,6-dione], for which the IC50 lay in the range of 10 to 1000 nM.

`Cn1c(CCN2CCOCC2)nc2c1c(=O)n(Cc1cc3cc(Cl)ccc3[nH]1)c(=O)n2C` [Example 229, 1-((5-chloro-1H-indol-2-yl)methyl)-3,7-dimethyl-8-(2-morpholinoethyl)-1H-purine-2,6(3H,7H)-dione]: the IC50 lay in the range of 10 to 1000 nM.

On to `Cn1c(Nc2cccnc2)nc2c1c(=O)n(Cc1cc3c(Cl)cccc3[nH]1)c(=O)n2C` [Example 343, 1-((4-chloro-1H-indol-2-yl)methyl)-3,7-dimethyl-8-(pyridin-3-ylamino)-1H-purine-2,6(3H,7H)-dione], for which the IC50 was 10 to 1000 nM.

For the compound `Cn1cnc2c1c(=O)n(Cc1cc3ccccc3[nH]1)c(=O)n2C` [Example 234, 1-((1H-indol-2-yl)methyl)-3,7-dimethyl-1H-purine-2,6(3H,7H)-dione], the IC50 is 1000 to 5000 nM.

The compound `Cn1c(Nc2cccc(C#N)c2)nc2c1c(=O)n(Cc1ccc(Cl)c(Cl)c1)c(=O)n2C` [Example 130, 3-(1-(3,4-dichlorobenzyl)-3,7-dimethyl-2,6-dioxo-2,3,6,7-tetrahydro-1H-purin-8-ylamino)benzonitrile] yielded an IC50 of 1000 to 5000 nM.

In the case of `Cn1c(=O)n(Cc2ccc(Cl)c(Cl)c2)c(=O)c2c1nc(NC1CCCC(C(=O)O)C1)n2CC(N)=O` (centres unmarked) [Example 306, 3-(7-(2-amino-2-oxoethyl)-1-(3,4-dichlorobenzyl)-3-methyl-2,6-dioxo-2,3,6,7-tetrahydro-1H-purin-8-ylamino)cyclohexanecarboxylic acid], the 50% inhibitory concentration (IC50) was 10 to 1000 nM.

The compound `Cn1c(=O)n(Cc2ccc(Cl)c(Cl)c2)c(=O)c2c1ncn2CC(N)=O` [Example 246, 2-(1-(3,4-dichlorobenzyl)-3-methyl-2,6-dioxo-2,3-dihydro-1H-purin-7(6H)-yl)acetamide] had an IC50 of more than 10000 nM.

Take `Cn1c(Cn2c(=O)c3c(nc(N[C@H]4CC[C@@H](O)C4)n3C)n(C)c2=O)cc2ccccc21` (racemic) [Example 179, (±)-8-((cis)-3-hydroxycyclopentylamino)-3,7-dimethyl-1-((1-methyl-1H-indol-2-yl)methyl)-1H-purine-2,6(3H,7H)-dione]: the IC50 lay in the range of 10 to 1000 nM.

`Cc1cccc2[nH]c(Cn3c(=O)c4c(nc(N[C@H]5C[C@H](CO)C5)n4C)n(C)c3=O)cc12` [Example 327, 8-((1R,3R)-3-(hydroxymethyl)cyclobutylamino)-3,7-dimethyl-1-((4-methyl-1H-indol-2-yl)methyl)-1H-purine-2,6(3H,7H)-dione] gave a half-maximal inhibitory concentration (IC50) of 10 to 1000 nM.
